Laboratory results: patent US20150322001A1, “OMEGA-3 ANALOGUES” (The University of Sydney, priority 2012, published 2015)

Columns and labels:
[1] = test system: MDA-MB-231 cells; experiment: MTT assay, inhibition of proliferation of MDA-MB-231 cells; type: cell-based, human; settings: MTT reduction, 24 h
Experimental: The synthesized compounds given in Table 1 were tested for their activity in inhibiting the proliferation of MDA-MB-231 cells.
• 1. Cell culture and cell treatment: Breast cancer MDA-MB-231 cells were maintained in monolayers at 37° C. in DMEM containing penicillin and streptomycin, L-glutamine and 10% fetal bovine serum in an atmosphere of 95% air and 5% CO2. Cells were seeded into multi-well plates at 5×10^4 cells/mL; media was replaced 24 h later with fresh serum-free DMEM containing one of the test compounds in DMSO. DMSO was added to control cells at a final concentration of 0.1%. • 2. MTT assay: MDA-MB-231 cells were seeded in 96 well plates (0.2 mL/well), treated with compounds at 0.01, 0.1, 0.5, 1, 5 and 10 μM for 24 h. MTT (25 μL of 2.5 mg/mL solution) was added to each well for 2 h, after which MTT and media were removed. The blue formazan product formed from MTT by live cells was dissolved in DMSO (100 μL/well) and quantified spectrophotometrically at 540 nm in a multilabel counter. IC50s were calculated using GraphPad Prism (Prism 5.01). • 3. Caspase 3 activity: MDA-MB-231 cells were seeded in 96 well plates (0.2 mL/well), and were treated with compounds at 0.1, 0.5 and 1 μM for 24 h. Caspase 3 activity was quantified using the Caspase-Glo 3/7 assay kit according to manufacturer's protocol (Promega). Briefly, after 24 h treatment, fresh serum-free media was added to wells. Cells were equilibrated at room temperature for 30 min, caspase 3/7 substrate in lysis buffer was added and the luminescence was measured. Relative caspase 3/7 activity was calculated as [(luminescence in treatment−luminescence in control)/luminescence in control×100%]. • 4. Annexin V assay: MDA-MB-231 cells were seeded in 6 well plates (3 mL/well), and were treated with compounds at 0.1, 0.5 and 1 μM for 24 h. The apoptotic cells were quantified by Annexin V staining according to the manufacture's protocol (BD Biosciences). Briefly, after 24 h treatment, the media and harvested cells were collected, followed by PBS washes. Cells were stained with Annexin V and PI in binding buffer for 15 min at room temperature and quantified by flow cytometry (BD Biosciences). The apoptotic cells (%) were calculated as [(Annexin V positive cells in treatment−Annexin V positive cells in control)/Annexin V positive cells in control×100%]. • 5. Matrigel assay: MDA-MB-231 cells were trypsinized and resuspended in serum-free DMEM media (3.5×10^6 cells/mL). The cell suspension was mixed 1:1 with Matrigel solution (Bio Scientific). Aliquots (20 μL containing 3.5×10^4 cells) were placed into 6-well tissue-culture dishes to form well-defined droplets and incubated at 37° C. for 5 min to enable semi-solidification. Migration media was freshly made as DMEM containing 20% fetal bovine serum, epidermal growth factor 10 pg/mL, hydrocortisone 0.4 ng/mL, vascular endothelial growth factor (VEGF, 1 pg/mL), basic fibroblast growth factor (bFGF, 20 pg/mL), insulin-like growth factor-1 (40 pg/mL), ascorbic acid (2 ng/mL) and heparin (45 ng/mL). Compounds were added in migration media (3 mL/well) and plates were then incubated for 24 h. Cells that migrated out of droplets were scored using phase-contrast microscopy and digital image analysis (Olympus). • 6. Real-time RT PCR: Cell droplets from migration assays were collected, and total RNA was extracted using Tri Reagent (Astral Scientific) according to the manufacturer's protocol. RNA samples were treated with DNase (Promega) and gene expression was quantified using an Express Onestep Superscript qRT-PCT kit (Invitrogen) and gene-specific primers: heparanase (forward) […] and (reverse) GCAGCAACTTTGGCATTTC, integrin-α3 (forward) […] and (reverse) […], actin (forward) […] and (reverse) […]. The cycling conditions (Roto-Gene™ 6000; Corbett Research) were as follows: 95° C. (15 min); 40 cycles of denaturation (95° C., 30 s); annealing (60° C., 1 min); elongation (72° C., 1 min). […]

[2] = test system: MDA-MB-231 breast cancer cell xenografts; experiment: In vivo evaluation of compound 15, MDA-MB-231 xenografts in nude mice; settings: 10 mg/kg intraperitoneally, 39 days
Experimental: One of the synthesised compounds given in Table 1 (compound 15, reproduced below) was tested for its activity in inhibiting the proliferation of MDA-MB-231 breast cancer cell xenografts in nude mice.
female nu/nu Balb/c mice of 5-6 weeks age at the commencement of the experiment (one week acclimatization after arrival in the animal facility).
two groups of 8 mice each.
MDA-MB-231 cells, 4×10^5 cells/100 μL (Matrigel:phosphate-buffered saline, 1:1) per mouse; subcutaneous injection into the mammary pad.
4 days after cancer cell xenografting compound 15 was administered intraperitoneally at a dose of 10 mg/kg in corn oil (Sigma, containing 2% dimethylsulfoxide). Dosing continued for 6 days per week, for a total of 39 days. Control animals received 2% dimethylsulfoxide in corn oil, 100 μL per 20 g mouse for the same duration.
Body weights were measured daily and tumour sizes every three days (with calipers).

[3] = test system: human MDA-MB-231 breast cancer cell xenografts; experiment: In vivo dose-response study of compound 29, MDA-MB-231 xenografts in nude mice; settings: for toxicity of the treatment (growth rates): all dose groups
Experimental: One of the synthesised compounds given in Table 1 (compound 29, reproduced below) was the subject of an in vivo dose-response study in nude mice with human MDA-MB-231 breast cancer cell xenografts. One group received compound 15 in parallel.
nu/nu Balb/c; Age: 6 weeks at commencement of study; Gender: female
control, compound 29 (2.5 mg/kg), compound 29 (10 mg/kg), compound 29 (40 mg/kg) and compound 15 (10 mg/kg); 5 mice/group
human MDA-MB-231 cells, 4×10^5 cells/100 μl (Matrigel:PBS 1:1)/mouse, subcutaneous injection into the 4th mammary fat pad.
after 4 days animals received compound 29 at 40, 10 and 2.5 mg/kg doses (in corn oil, Sigma, and 8% DMSO), or compound 15 at 10 mg/kg in corn oil at 4% DMSO, 6 days each week, for 38 days. Control: 8% DMSO in corn oil.
weighed six days a week; tumour sizes measured with calipers every 3 to 4 days.

[4] = test system: MDA-MB-231 cells; experiment: Proapoptotic activity in MDA-MB-231 cells (JC-1 staining, confluence); type: cell-based, human
Experimental: Several of the compounds were tested for the capacity to induce apoptosis in MDA-MB-231 cells (10 μM, 24 hr treatments). […] In view of the finding with compound 29 a concentration-relationship was developed with caspase-3/7 activity (an established marker of apoptosis) as the endpoint (FIG. 11).

Row | Molecule | IC50 ([1]; Homo sapiens) | also measured
1 | 16-{[(4-methoxyphenyl)carbamoyl]amino}hexadecanoic acid [Compound 24] |  | IC50 [1]: 1.3 µM
2 | CCOC(=O)CCCCCCCCCCCCCCCNC(=O)NCCc1ccccc1 [Compound 2, Ethyl 16-{[(2-phenylethyl)carbamoyl]amino}hexadecanoate] | 1.11 ± 0.26 µM | 
3 | O=C(O)CCCCCCCCCCCCCCCNC(=O)NCCc1ccccc1 [Compound 3, 16-{[(2-phenylethyl)carbamoyl]amino}hexadecanoic acid] | 1.5 ± 0.08 µM | 
4 | O=C(O)CCCCCCCCCCCCCCCNC(=O)NC1CCCCC1 [Compound 5, 16-[(cyclohexylcarbamoyl)amino]hexadecanoic acid] | 2.78 ± 0.19 µM | 
5 | CC(C)(C)NC(=O)NCCCCCCCCCCCCCCCC(=O)O [Compound 7, 16-[(tert-butylcarbamoyl)amino]hexadecanoic acid] | 1.22 ± 0.08 µM | 
6 | CCOC(=O)CCCCCCCCCCCCCCCNC(=O)Nc1ccc(F)cc1 [Compound 11, Ethyl 16-{[(4-fluorophenyl)carbamoyl]amino}hexadecanoate] | 0.76 ± 0.07 µM | 
7 | CCOC(=O)CCCCCCCCCCCCCCCNC(=O)Nc1ccc(Cl)cc1 [Compound 13, Ethyl 16-{[(4-chlorophenyl)carbamoyl]amino}hexadecanoate] | 0.08 ± 0.01 µM | 
8 | O=C(O)CCCCCCCCCCCCCCCNC(=O)Nc1ccc(Cl)cc1 [Compound 14, 16-{[(4-chlorophenyl)carbamoyl]amino}hexadecanoic acid] | 0.81 µM | 
9 | CCOC(=O)CCCCCCCCCCCCCCCNC(=O)Nc1ccc(C)cc1 [Compound 15, Ethyl 16-{[(4-methylphenyl)carbamoyl]amino}hexadecanoate] | 0.02 µM | dose limiting toxicity ([2]; 6 days per week): no dose limiting toxicity; mouse body weight loss ([2]; 6 days per week, FIG. 4): greater with compound 15 than control; tumour metastasis [2]: appears to suppress tumour metastasis; primary tumour growth (growth rate and volume) ([2]; FIG. 5): did not prevent primary tumour growth; mice with white small foci in the abdominal cavity ([2]; controls 7/8): 1/8; toxicity of the treatment (growth rates) ([3]; 38 days): non-toxic; mouse body weight gain or loss ([3]; compound 15 10 mg/kg IP, 38 days, FIG. 8): lost weight at the early stage of IP injections
10 | O=C(O)CCCCCCCCCCCCCCCNC(=O)Nc1ccc(I)cc1 [Compound 26, 16-{[(4-iodophenyl)carbamoyl]amino}hexadecanoic acid] | 1 µM | 
11 | O=C(O)CCCCCCCCCCCCCCCNC(=O)Nc1ccc(Cl)c(Cl)c1 [Compound 28, 16-{[(3,4-dichlorophenyl)carbamoyl]amino}hexadecanoic acid] | 1.2 µM | 
12 | O=C(O)CCCCCCCCCCCCCCCNC(=O)Nc1ccc(Cl)c(C(F)(F)F)c1 [Compound 29, 16-({[4-chloro-3-(trifluoromethyl)phenyl]carbamoyl)amino}hexadecanoic acid] | 1.1 µM | JC-1 staining (mitochondrial damage) ([4]; 10 μM, 24 hr, FIG. 10): Increased JC-1 staining; confluence of treated cells ([4]; FIG. 12): decreased confluence; tumour growth rate and volume at later time points (after day 25) ([3]; 2.5 mg/kg, FIG. 9): larger than the compound 29 (40 mg/kg) group; tumour growth ([3]; 10 mg/kg, FIG. 9): decreased from day 32; tumour weights versus control and 2.5 mg/kg groups ([3]; 40 mg/kg, day 38): significantly smaller; tumour volumes versus control and 2.5 mg/kg groups ([3]; 40 mg/kg, day 38, FIG. 9): significantly smaller; toxicity of the treatment (growth rates) ([3]; 38 days): non-toxic; mouse body weight gain or loss ([3]; compound 29 2.5 mg/kg, 38 days, FIG. 7): gained weight at a steady and similar rate; mouse body weight gain or loss ([3]; compound 29 10 mg/kg, 38 days, FIG. 7): gained weight at a steady and similar rate; mouse body weight gain or loss ([3]; compound 29 40 mg/kg, 38 days, FIG. 7): gained weight at a steady and similar rate; tumour foci in the peritoneal cavity ([3]; compound 29-treated mice (2.5, 10, 40 mg/kg), 38 days): No tumour foci were seen

More lines, main results first:

Row | IC50 ([1]; Homo sapiens) | Molecule | also measured
13 | 0.85 ± 0.02 µM | CCOC(=O)CCCCCCCCCCCCCCCNC(=O)NC1CCCCC1 [Compound 1] | 
14 | 6.92 ± 0.31 µM | CCOC(=O)CCCCCCCCCCCCCCCNC(=O)NC(C)(C)C [Compound 4, Ethyl 16-[(tert-butylcarbamoyl)amino]hexadecanoate] | 
15 | 1.2 µM | O=C(O)CCCCCCCCCCCCCCCNC(=O)Nc1ccccc1 [Compound 6, 16-[(phenylcarbamoyl)amino]hexadecanoic acid] | 
16 | 0.72 ± 0.01 µM | O=C(O)CCCCCCCCCCCCCCCNC(=O)NCc1ccccc1 [Compound 8, 16-[(benzylcarbamoyl)amino]hexadecanoic acid] | 
17 | 1.59 ± 0.28 µM | CCOC(=O)CCCCCCCCCCCCCCCNC(=O)Nc1ccccc1 [Compound 9, Ethyl 16-[(phenylcarbamoyl)amino]hexadecanoate] | 
18 | 0.87 ± 0.08 µM | CCOC(=O)CCCCCCCCCCCCCCCNC(=O)NCc1ccccc1 [Compound 10, Ethyl 16[(benzylcarbamoyl)amino]hexadecanoate] | 
19 | 1 µM | O=C(O)CCCCCCCCCCCCCCCNC(=O)Nc1ccc(F)cc1 [Compound 12, 16-{[(4-fluorophenyl)carbamoyl]amino}hexadecanoic acid] | 
20 | 2.75 ± 0.27 µM | CCOC(=O)CCCCCCCCCCCCCCCNC(=O)NC12CC3CC(CC(C3)C1)C2 [Compound 17, Ethyl 16-[(tricyclo[3.3.1.1^3,7]dec-1-ylcarbamoyl)amino]hexadecanoate] | 
21 | 0.66 ± 0.03 µM | CCNC(=O)NCCCCCCCCCCCCCCCC(=O)OCC [Compound 20, Ethyl 16-[(ethylcarbamoyl)amino]hexadecanoate] | 
